According to patent publication US20230022796A1 (Merck Patent GmbH, priority 2019, published 2023):

Test system: CHO cell line producing mAb3
Test: Glycosylation profile (UPLC-MS of released glycans) of mAb3 from fed-batch
Format: cell-based, Chinese hamster
Method: Glycosylation patterns were analyzed by ultra-performance liquid chromatography coupled to a mass spectrometer (UPLC-MS). The purified antibody was denaturated and the glycans were released from the antibody by digestion with peptide N-glycosidase F (PNGase F) followed by labeling the glycans with the GlycoWorks™ RapiFluor-MS™ N-Glycan Kit according to the manufacturer protocol. For the analysis, an UPLC glycan column (2.1×150 mm) that separated the glycans according to their […] was used. The chromatography was performed at 45° C. using 50 mM ammonium formate (A), pH 4.4 solution and an acetonitrile (B) gradient. In detail, at the beginning the ratio of A:B was 20:80 (0 min) and changed to 27:73 at 3 min and 37:63 at 35 min at a flow rate of 0.5 ml/min. From 36.5 min to 39.5 min only A was used as mobile phase and the flow rate was reduced to 0.2 ml/min. Subsequently, the ratio was changed to 20% A:80% B and the flowrate was increased to 0.5 ml/min at 43.1 min until the end of the process at 55 min. The detection was performed by a fluorescence detector with an excitation wavelength of 265 nm and an emission wavelength of 425 nm. The identification of the glycan structures was performed by MS using positive electro spray ionization (ESI), which was calibrated every 30 s with a standard.
Four different clones of Chinese hamster ovary (CHO) cells expressing three different monoclonal antibodies (mAb) and a fusion protein were tested. Cells were cultivated in spin tubes between 14 and 20 days at 37° C., 5% CO2, and 80% humidity. As starting cell density, 3×10^5 cells/mL in 30 mL Cellvento®4CHO media (pH 7.0±0.1) was used for clone 1 and 2 producing mAb1 and mAb2, respectively (Cellvento® Platform). Cells were cultivated at an agitation of 320 rpm and were fed on day 3, 5, 10, 12 and 14 with 3% volume of Cellvento® 4Feed (v/v) and on day 7 with 6% (v/v) of the feed. Clone 3 and 4 producing mAb3 and a fusion protein were inoculated at the same cell density in 30 mL Ex-Cell® Advanced Media (pH 7.2±0.1) while agitation was set to 230 rpm (Ex-Cell® Platform). Clones 3 and 4 were fed with […] Advanced Feed (v/v) on day 3, 5, 7, 10, 12, 14 and 17. […] The pH of all Cellvento® feeds was adjusted to 7.0±0.1 and Ex-Cell® Feeds were adjusted to 8.5±0.1. The glucose level was maintained above 4 g/L by adding a specific amount of a 400 g/L glucose stock solution on demand to up to 6 g/L during the week and up to 13 g/L over the weekend. Glucose and titer were detected in the supernatant with the bioprocess analyzer CEDEX Bio HT (Roche, Mannheim, Germany).
To investigate the glycosylation profile during the fed-batch experiment samples were centrifugated and antibodies and Fc-fusion proteins were purified from the cell culture supernatant using protein A PhyTips® (PhyNexus Inc, San Jose, Calif.). Glycosylation patterns were analyzed as described by ultra-performance liquid chromatography coupled to a mass spectrometer (UPLC-MS) using the GlycoWorks™ RapiFluor-MS™ N-Glycan Kit.
Glycosylation profile on day 12 was visualized since harvest of recombinant produced proteins on day 12 is common. Quantification of the glycans was obtained using the relative peak area of the fluorescence signal. Almost all peaks were assigned to glycan structures according to their mass. Unknown glycan structures and signals without mass detection were summarized as unknown species (not shown). Four different clones of Chinese hamster ovary (CHO) cells expressing three different monoclonal antibodies (mAb) and a fusion protein were tested. […] The known positive control achieved a […] level on day 12 by increasing the afucosylation to 78%. The same amount of afucosylation compared to the known fucose-analogue acetylated 2F-Fucose was only achieved by clone 3 expressing mAb3 leading to about […] on day 12 (FIG. 8 C). […]

[1] = mAb3, 400 μM additive, day 12, listed as ThioFuc
[2] = mAb3, 800 μM additive, day 12, listed as ThioFuc

C[C@@H]1SC(O)[C@@H](O)[C@H](O)[C@@H]1O (some centres unmarked)
% Afucosylated (mAb3, 50 μM additive, day 5): 17.7%
% Fucosylated (mAb3, 50 μM additive, day 5): 81.4%
% fucose analogue (incorporated) (mAb3, 50 μM additive, day 5): 0.38%
% Afucosylated (mAb3, 50 μM additive, day 12): 16.0%
% Fucosylated (mAb3, 50 μM additive, day 12): 72.5%
% fucose analogue (incorporated) (mAb3, 50 μM additive, day 12): ~11%
% fucose analogue (incorporated) (mAb3, 50 μM additive, day 12, listed as ThioFuc): 10.7%
% Afucosylated (mAb3, 50 μM additive, day 14): 16.1%
% Fucosylated (mAb3, 50 μM additive, day 14): 69.9%
% fucose analogue (incorporated) (mAb3, 50 μM additive, day 14): 13.6%
% Afucosylated (mAb3, 200 μM additive, day 5): 22.1%
% Fucosylated (mAb3, 200 μM additive, day 5): 62.9%
% fucose analogue (incorporated) (mAb3, 200 μM additive, day 5): 14.5%
% Afucosylated (mAb3, 200 μM additive, day 12): 30.1%
% Fucosylated (mAb3, 200 μM additive, day 12): 33.3%
% fucose analogue (incorporated) (mAb3, 200 μM additive, day 12): ~36%
% fucose analogue (incorporated) (mAb3, 200 μM additive, day 12, listed as ThioFuc): 35.9%
% Afucosylated (mAb3, 200 μM additive, day 14): 32.1%
% Fucosylated (mAb3, 200 μM additive, day 14): 28.6%
% fucose analogue (incorporated) (mAb3, 200 μM additive, day 14): 39.1%
% Afucosylated (mAb3, 400 μM additive, day 5): 28.7%
% Fucosylated (mAb3, 400 μM additive, day 5): about 48%
% fucose analogue (incorporated) (mAb3, 400 μM additive, day 5): 26.5%
% Fucosylated (mAb3, 400 μM additive, day 5, listed as ThioFuc): 46.4%
fucosylation level (mAb3, 400 μM additive, day 7): about 34%
fucosylation level (mAb3, 400 μM additive, day 10): ~25%
% Fucosylated (mAb3, 400 μM additive, day 12): 21%
% Afucosylated [1]: 34.8%
% Fucosylated [1]: 20.9%
% fucose analogue (incorporated) [1]: 44.1%
% Afucosylated (mAb3, 400 μM additive, day 14): 36.0%
% Fucosylated (mAb3, 400 μM additive, day 14): ~18%
% fucose analogue (incorporated) (mAb3, 400 μM additive, day 14): 46.2%
% Fucosylated (mAb3, 400 μM additive, day 14, listed as ThioFuc): 17.7%
% Afucosylated (mAb3, 800 μM additive, day 5): 32.3%
% Fucosylated (mAb3, 800 μM additive, day 5): 40.4%
% fucose analogue (incorporated) (mAb3, 800 μM additive, day 5): 31.7%
% Afucosylated (mAb3, 800 μM additive, day 12): about 36%
% Fucosylated (mAb3, 800 μM additive, day 12): about 15%
% fucose analogue (incorporated) (mAb3, 800 μM additive, day 12): about 48%
reduction of fucosylation compared to the control (mAb3, 800 μM additive, day 12): about 75%
% Afucosylated [2]: 36.4%
% Fucosylated [2]: 15.4%
% fucose analogue (incorporated) [2]: 47.8%
% Afucosylated (mAb3, 800 μM additive, day 14): 38.0%
% Fucosylated (mAb3, 800 μM additive, day 14): 12.5%
% fucose analogue (incorporated) (mAb3, 800 μM additive, day 14): 49.3%
